Laboratory results from PubChem BioAssay AID1259407 (Chemical Carcinogenesis Research Information System (CCRIS), 2018).
The source made the active and inactive calls. The rule behind the calls is not given here.

System: CCRIS mutagenicity, Ames/micronucleus/aberration tests
Assay: CCRIS mutagenicity studies
[1] = Test System: AMES SALMONELLA TYPHIMURIUM, Strain/Indicator: TA98, Metabolic Activation: NONE, Method: PREINCUBATION
[2] = Test System: AMES SALMONELLA TYPHIMURIUM, Strain/Indicator: TA100, Metabolic Activation: NONE, Method: PREINCUBATION
[3] = Test System: AMES SALMONELLA TYPHIMURIUM, Strain/Indicator: TA1535, Metabolic Activation: NONE, Method: PREINCUBATION

## C=CCOCC1CO1 (stereo not drawn)
End Point: IN VITRO CHROMOSOMAL ABERRATIONS, Test System: CHL CELLS, Metabolic Activation: NONE
  mutagenic call: active; positive (structural changes)
End Point: IN VITRO CHROMOSOMAL ABERRATIONS, Test System: CHL CELLS, Metabolic Activation: RAT, LIVER, S-9, SODIUM PHENOBARBITAL AND 5,6-BENZOFLAVONE
  mutagenic call: active; positive (structural changes
Test System: AMES SALMONELLA TYPHIMURIUM, Strain/Indicator: TA98, Metabolic Activation: HAMSTER, LIVER, S-9, AROCLOR 1254, Method: PREINCUBATION
  mutagenic call: inactive; negative
[1]
  mutagenic call: inactive; negative
Test System: AMES SALMONELLA TYPHIMURIUM, Strain/Indicator: TA98, Metabolic Activation: RAT, LIVER, S-9, AROCLOR 1254, Method: PREINCUBATION
  mutagenic call: inactive; negative
Test System: AMES SALMONELLA TYPHIMURIUM, Strain/Indicator: TA100, Metabolic Activation: HAMSTER, LIVER, S-9, AROCLOR 1254, Method: PREINCUBATION
  mutagenic call: active; positive
[2]
  mutagenic call: active; positive
Test System: AMES SALMONELLA TYPHIMURIUM, Strain/Indicator: TA100, Metabolic Activation: RAT, LIVER, S-9, AROCLOR 1254, Method: PREINCUBATION
  mutagenic call: active; positive
Test System: AMES SALMONELLA TYPHIMURIUM, Strain/Indicator: TA1535, Metabolic Activation: HAMSTER, LIVER, S-9, AROCLOR 1254, Method: PREINCUBATION
  mutagenic call: active; positive
[3]
  mutagenic call: active; positive
Test System: AMES SALMONELLA TYPHIMURIUM, Strain/Indicator: TA1535, Metabolic Activation: RAT, LIVER, S-9, AROCLOR 1254, Method: PREINCUBATION
  mutagenic call: active; positive
Test System: AMES SALMONELLA TYPHIMURIUM, Strain/Indicator: TA1537, Metabolic Activation: HAMSTER, LIVER, S-9, AROCLOR 1254, Method: PREINCUBATION
  mutagenic call: inactive; negative
Test System: AMES SALMONELLA TYPHIMURIUM, Strain/Indicator: TA1537, Metabolic Activation: NONE, Method: PREINCUBATION
  mutagenic call: inactive; negative
Test System: AMES SALMONELLA TYPHIMURIUM, Strain/Indicator: TA1537, Metabolic Activation: RAT, LIVER, S-9, AROCLOR 1254, Method: PREINCUBATION
  mutagenic call: inactive; negative

## Cc1cccc2cccnc12
Test System: AMES SALMONELLA TYPHIMURIUM, Strain/Indicator: TA98, Metabolic Activation: HAMSTER, LIVER, S-9, AROCLOR 1254 (30%), Method: PREINCUBATION
  mutagenic call: active; positive
[1]
  mutagenic call: inactive; negative
Test System: AMES SALMONELLA TYPHIMURIUM, Strain/Indicator: TA98, Metabolic Activation: RAT, LIVER, S-9, AROCLOR 1254 (30%), Method: PREINCUBATION
  mutagenic call: inactive; negative
Test System: AMES SALMONELLA TYPHIMURIUM, Strain/Indicator: TA100, Metabolic Activation: HAMSTER, LIVER, S-9, AROCLOR 1254 (30%), Method: PREINCUBATION
  mutagenic call: active; positive
[2]
  mutagenic call: inactive; negative
Test System: AMES SALMONELLA TYPHIMURIUM, Strain/Indicator: TA100, Metabolic Activation: RAT, LIVER, S-9, AROCLOR 1254 (30%), Method: PREINCUBATION
  mutagenic call: inactive; negative
Test System: AMES SALMONELLA TYPHIMURIUM, Strain/Indicator: TA100, Metabolic Activation: S-9, Method: PREINCUBATION
  mutagenic call: inactive; negative
Test System: UDS RODENT HEPATOCYTES, Strain/Indicator: THY INCORP (NON-S-PHASE), Metabolic Activation: NONE, Method: AUTORADIOGRAPHY
  mutagenic call: active; positive

## CCCCN(CC(O)c1ccc(O)cc1)N=O (stereo not drawn)
[1]
  mutagenic call: inactive; negative
Test System: AMES SALMONELLA TYPHIMURIUM, Strain/Indicator: TA98, Method: PREINCUBATION
  mutagenic call: inactive; negative
[2]
  mutagenic call: inactive; negative
Test System: AMES SALMONELLA TYPHIMURIUM, Strain/Indicator: TA100, Method: PREINCUBATION
  mutagenic call: inactive; negative

## Cc1c2ccccc2cc2ccc3ccccc3c12
Test System: AMES SALMONELLA TYPHIMURIUM, Strain/Indicator: TA98, Method: STANDARD PLATE
  mutagenic call: active; positive
Test System: AMES SALMONELLA TYPHIMURIUM, Strain/Indicator: TA100, Metabolic Activation: RAT, INTACT HEPATOCYTES, AROCLOR 1254, Method: PREINCUBATION
  mutagenic call: active; positive
Test System: AMES SALMONELLA TYPHIMURIUM, Strain/Indicator: TA100, Metabolic Activation: RAT, LIVER, S-9, PHENOBARBITAL, Method: STANDARD PLATE
  mutagenic call: active; positive
Test System: AMES SALMONELLA TYPHIMURIUM, Strain/Indicator: TA100, Metabolic Activation: RAT, NADPH-FORTIFIED HOMOGENIZED HEPATOCYTES, AROCLOR 1254, Method: PREINCUBATION
  mutagenic call: active; positive
Test System: AMES SALMONELLA TYPHIMURIUM, Strain/Indicator: TA100, Metabolic Activation: RAT, SONICATED HEPATOCYTES, AROCLOR 1254, Method: PREINCUBATION
  mutagenic call: active; positive
Test System: AMES SALMONELLA TYPHIMURIUM, Strain/Indicator: TA100, Method: STANDARD PLATE
  mutagenic call: active; positive

## CN1C(CSCC(F)(F)F)Nc2cc(Cl)c(S(N)(=O)=O)cc2S1(=O)=O (stereo not drawn)
Test System: AMES SALMONELLA TYPHIMURIUM, Strain/Indicator: TA97, Metabolic Activation: HAMSTER, LIVER, S-9, AROCLOR 1254 (10 OR 30%), Method: PREINCUBATION
  mutagenic call: inactive; negative
Test System: AMES SALMONELLA TYPHIMURIUM, Strain/Indicator: TA97, Metabolic Activation: NONE, Method: PREINCUBATION
  mutagenic call: inactive; negative
Test System: AMES SALMONELLA TYPHIMURIUM, Strain/Indicator: TA97, Metabolic Activation: RAT, LIVER, S-9, AROCLOR 1254 (10 OR 30%), Method: PREINCUBATION
  mutagenic call: inactive; negative
Test System: AMES SALMONELLA TYPHIMURIUM, Strain/Indicator: TA98, Metabolic Activation: HAMSTER, LIVER, S-9, AROCLOR 1254 (10 OR 30%), Method: PREINCUBATION
  mutagenic call: inactive; negative
[1]
  mutagenic call: inactive; negative
Test System: AMES SALMONELLA TYPHIMURIUM, Strain/Indicator: TA98, Metabolic Activation: RAT, LIVER, S-9, AROCLOR 1254 (10 OR 30%), Method: PREINCUBATION
  mutagenic call: inactive; negative
Test System: AMES SALMONELLA TYPHIMURIUM, Strain/Indicator: TA100, Metabolic Activation: HAMSTER, LIVER, S-9, AROCLOR 1254 (10 OR 30%), Method: PREINCUBATION
  mutagenic call: inactive; negative
[2]
  mutagenic call: inactive; negative
Test System: AMES SALMONELLA TYPHIMURIUM, Strain/Indicator: TA100, Metabolic Activation: RAT, LIVER, S-9, AROCLOR 1254 (10 OR 30%), Method: PREINCUBATION
  mutagenic call: inactive; negative
Test System: AMES SALMONELLA TYPHIMURIUM, Strain/Indicator: TA1535, Metabolic Activation: HAMSTER, LIVER, S-9, AROCLOR 1254 (10 OR 30%), Method: PREINCUBATION
  mutagenic call: inactive; negative
[3]
  mutagenic call: inactive; negative
Test System: AMES SALMONELLA TYPHIMURIUM, Strain/Indicator: TA1535, Metabolic Activation: RAT, LIVER, S-9, AROCLOR 1254 (10 OR 30%), Method: PREINCUBATION
  mutagenic call: inactive; negative

## CCCCN(N=O)/C(N)=N/[N+](=O)[O-]
[2]
  mutagenic call: active; positive
Test System: AMES SALMONELLA TYPHIMURIUM, Strain/Indicator: TA100, Metabolic Activation: RAT, LIVER, S-9, KC500 OR PHENOBARBITAL, Method: LIQUID SUSPENSION
  mutagenic call: active; positive
[3]
  mutagenic call: active; positive
Test System: AMES SALMONELLA TYPHIMURIUM, Strain/Indicator: TA1535, Metabolic Activation: NONE, Method: STANDARD PLATE
  mutagenic call: active; positive
Test System: AMES SALMONELLA TYPHIMURIUM, Strain/Indicator: TA1535, Metabolic Activation: RAT, LIVER, S-9, KC500 OR PHENOBARBITAL, Method: LIQUID SUSPENSION
  mutagenic call: active; positive
Test System: AMES SALMONELLA TYPHIMURIUM, Strain/Indicator: YG7104, Metabolic Activation: NONE, Method: PREINCUBATION
  mutagenic call: active; positive
Test System: AMES SALMONELLA TYPHIMURIUM, Strain/Indicator: YG7108, Metabolic Activation: NONE, Method: PREINCUBATION
  mutagenic call: active; positive
Test System: AMES SALMONELLA TYPHIMURIUM, Strain/Indicator: YG7112, Metabolic Activation: NONE, Method: PREINCUBATION
  mutagenic call: active; positive
Test System: AMES SALMONELLA TYPHIMURIUM, Strain/Indicator: YG7113, Metabolic Activation: NONE, Method: PREINCUBATION
  mutagenic call: active; positive
